# How the values were obtained:
# [1] = system: Human immunodeficiency virus 1; assay: Antiviral activity against HIV1 wild type subtype B NL (4 to 3) harbouring V362/Q369/V370/T371 transfected in human HEK293T cells by dual-luciferase reporter assay; format: functional, organism-based; details: Human immunodeficiency virus 1, HEK-293T
# [2] = system: Human immunodeficiency virus 1; assay: Antiviral activity against HIV1 wild type subtype C NL (4 to 3) transfected in human HEK293T cells by dual-luciferase reporter assay; format: functional, organism-based; details: Human immunodeficiency virus 1, HEK-293T
# [3] = Half life in overnight fasted Sprague-Dawley rat at 1 mg/kg, iv; format: ADME, organism-based; details: in vivo
# [4] = Half life in overnight fasted cynomolgus monkey at 1 mg/kg, iv; format: ADME, organism-based, Macaca fascicularis; details: in vivo
# [5] = Oral bioavailability in overnight fasted Sprague-Dawley rat using spray-dried dispersion at 5 mg/kg; format: ADME, organism-based; details: in vivo
# [6] = Oral bioavailability in overnight fasted cynomolgus monkey using spray-dried dispersion at 2 mg/kg; format: ADME, organism-based, Macaca fascicularis; details: in vivo
# [7] = AUC(0 to t) in overnight fasted Beagle dog at 2 mg/kg, po or 1 mg/kg, iv; format: ADME, organism-based, Canis lupus familiaris; parameters: dose 2 mg/kg, route po; details: in vivo
# [8] = Cmax in overnight fasted Sprague-Dawley rat at 5 mg/kg, po or 1 mg/kg, iv; format: ADME, organism-based; parameters: dose 5 mg/kg, route po; details: in vivo
# [9] = Plasma protein binding in human by ultracentrifugation; format: ADME, cell-free; details: read-out: PPB (converted)
# [10] = system: Human immunodeficiency virus 1; assay: Antiviral activity against HIV1 virus harboring NL (4 to 3) harbouring […]/V370A mutant transfected in human HEK293T cells by luciferase reporter assay; format: functional, organism-based; details: Human immunodeficiency virus 1, HEK-293T
# [11] = Metabolic stability in cynomolgus monkey liver microsomes assessed as half life in presence of NADPH at 0.5 uM by LC-MS/MS analysis; format: ADME, Macaca fascicularis, Microsome
# [12] = target: T1, Cytochrome P450 1A2 (Homo sapiens, UniProt P05177); assay: Inhibition of CYP1A2 (unknown origin); format: ADME
# T1 sequence (P05177 whole entry): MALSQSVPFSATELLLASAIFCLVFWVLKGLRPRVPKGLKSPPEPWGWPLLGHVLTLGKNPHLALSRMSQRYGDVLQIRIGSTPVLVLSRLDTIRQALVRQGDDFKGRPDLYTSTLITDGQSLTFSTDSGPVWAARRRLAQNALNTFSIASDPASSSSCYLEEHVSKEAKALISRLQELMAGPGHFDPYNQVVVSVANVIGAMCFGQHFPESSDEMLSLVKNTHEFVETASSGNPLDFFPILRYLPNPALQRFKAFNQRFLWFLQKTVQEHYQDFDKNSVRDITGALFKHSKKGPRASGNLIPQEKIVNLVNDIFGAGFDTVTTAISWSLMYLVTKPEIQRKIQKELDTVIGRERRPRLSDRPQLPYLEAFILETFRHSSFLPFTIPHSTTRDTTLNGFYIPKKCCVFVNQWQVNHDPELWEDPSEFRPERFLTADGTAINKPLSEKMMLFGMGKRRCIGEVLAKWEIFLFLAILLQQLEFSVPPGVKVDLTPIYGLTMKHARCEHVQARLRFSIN
# [13] = target: T2, Cytochrome P450 2C8 (Homo sapiens, UniProt P10632); assay: Inhibition of CYP2C8 (unknown origin); format: ADME
# T2 sequence (P10632 whole entry): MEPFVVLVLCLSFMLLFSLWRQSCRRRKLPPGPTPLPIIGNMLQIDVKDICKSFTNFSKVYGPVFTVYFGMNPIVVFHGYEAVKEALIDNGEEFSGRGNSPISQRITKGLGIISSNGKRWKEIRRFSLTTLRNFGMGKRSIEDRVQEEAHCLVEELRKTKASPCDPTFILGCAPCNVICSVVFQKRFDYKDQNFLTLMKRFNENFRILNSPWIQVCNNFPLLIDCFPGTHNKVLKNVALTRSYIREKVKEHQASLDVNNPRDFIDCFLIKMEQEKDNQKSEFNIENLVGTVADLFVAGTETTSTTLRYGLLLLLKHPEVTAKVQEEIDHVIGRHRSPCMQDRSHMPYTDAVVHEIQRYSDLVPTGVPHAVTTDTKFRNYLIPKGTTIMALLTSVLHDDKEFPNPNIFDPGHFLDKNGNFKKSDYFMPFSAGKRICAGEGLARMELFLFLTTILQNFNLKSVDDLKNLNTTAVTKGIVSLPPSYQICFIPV
# [14] = Lipophilicity, log D of the compound at pH 6.5; format: physicochemical; details: buffer
# [15] = target: T3, CYP1A2 (Homo sapiens, UniProt P05177); assay: Induction of CYP1A2 in human hepatocyte; format: ADME, cell-based; details: hepatocytes
# T3 sequence (P05177 whole entry): T1 sequence (P05177 whole entry)
# [16] = target: T4, CYP2B6 (Homo sapiens, UniProt P20813); assay: Induction of CYP2B6 in human hepatocyte; format: ADME, cell-based; details: hepatocytes
# T4 sequence (P20813 whole entry): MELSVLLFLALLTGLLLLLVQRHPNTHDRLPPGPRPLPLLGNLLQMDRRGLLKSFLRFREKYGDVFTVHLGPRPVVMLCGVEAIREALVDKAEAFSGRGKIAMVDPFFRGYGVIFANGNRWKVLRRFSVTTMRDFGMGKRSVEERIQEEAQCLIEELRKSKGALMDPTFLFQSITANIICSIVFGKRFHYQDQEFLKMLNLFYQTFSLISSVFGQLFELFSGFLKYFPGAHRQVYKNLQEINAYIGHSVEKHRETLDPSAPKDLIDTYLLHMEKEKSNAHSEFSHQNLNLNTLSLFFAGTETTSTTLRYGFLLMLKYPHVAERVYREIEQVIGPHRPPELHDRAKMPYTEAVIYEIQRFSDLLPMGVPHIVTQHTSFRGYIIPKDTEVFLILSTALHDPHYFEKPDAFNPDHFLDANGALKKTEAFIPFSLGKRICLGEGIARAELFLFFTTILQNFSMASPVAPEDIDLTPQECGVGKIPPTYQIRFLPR
# [17] = Half life in human liver microsomes at […] measured upto 300 mins by LC-MS/MS analysis; format: ADME, Microsome
# [18] = target: T5, UDP-glucuronosyltransferase 1A1 (Homo sapiens, UniProt P22309); assay: Inhibition of UGT1A1(unknown origin)
# T5 sequence (P22309 whole entry): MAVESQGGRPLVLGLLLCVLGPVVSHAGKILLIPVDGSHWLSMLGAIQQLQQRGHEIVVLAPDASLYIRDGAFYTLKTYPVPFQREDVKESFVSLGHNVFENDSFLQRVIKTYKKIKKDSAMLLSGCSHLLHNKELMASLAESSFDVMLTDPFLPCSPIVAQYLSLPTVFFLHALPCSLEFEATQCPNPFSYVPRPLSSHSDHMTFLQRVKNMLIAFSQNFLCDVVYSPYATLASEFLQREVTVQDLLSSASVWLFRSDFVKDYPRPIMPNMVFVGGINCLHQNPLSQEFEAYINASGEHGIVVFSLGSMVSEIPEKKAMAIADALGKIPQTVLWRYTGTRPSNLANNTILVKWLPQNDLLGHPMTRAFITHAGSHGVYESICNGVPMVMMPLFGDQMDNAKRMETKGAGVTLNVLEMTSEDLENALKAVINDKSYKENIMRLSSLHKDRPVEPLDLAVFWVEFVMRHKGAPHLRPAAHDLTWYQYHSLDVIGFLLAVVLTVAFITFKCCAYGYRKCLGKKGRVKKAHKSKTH
# [19] = Drug concentration in overnight fasted Sprague-Dawley rat plasma at 5 mg/kg, po or 1 mg/kg, iv measured after 24 hrs; format: ADME, organism-based
# [20] = Drug concentration in overnight fasted cynomolgus monkey plasma at 2 mg/kg, po or 1 mg/kg, iv measured after 24 hrs; format: ADME, organism-based, Macaca fascicularis
compound,measurement,setting,value
C=C(C)[C@@H]1CC[C@]2(NCCN3CCS(=O)(=O)CC3)CC[C@]3(C)[C@H](CC[C@@H]4[C@@]5(C)CC=C(C6=CC[C@@](CF)(C(=O)O)CC6)C(C)(C)[C@@H]5CC[C@]43C)[C@@H]12 [FIPRAVIRIMAT],EC50,[1],0.0011 µM
same,EC50,[2],0.0012 µM
same,half-life,[3],4 h
same,half-life,[4],5.3 h
same,bioavailability,[5],40%
same,bioavailability,[6],28%
same,AUCt,[7],4.3 µM·h
same,Cmax,[8],900 nM
same,fraction unbound,[9],0.14
same,EC50,[10],> 3 µM
same,half-life at 0.5 µM,[11],0.467 h
same,IC50,[12],> 13.3 µM
same,IC50,[13],> 13.3 µM
same,logD,[14],4.9
same,EC50,[15],> 5 µM
same,EC50,[16],> 5 µM
same,half-life,[17],> 24 h
same,IC50,[18],3.9 µM
same,concentration at 24 h,[19],21.8 nM
same,concentration at 24 h,[20],68 nM
